Data on two molecules can be found in patent publication US20080234199A1, “Chemical Compounds” (Smithkline Beecham Corporation, priority 2005, published 2008).

The molecule `CCC(=C(c1ccc(O)cc1)c1ccc(O)cc1)c1ccc(/C=C/C(=O)O)cc1` [Example 1, (2E)-3-{4-[1-ethyl-2,2-bis(4-hydroxyphenyl)ethenyl]phenyl}-2-propenoic acid] showed a melting point of 280 to 281 °C. In turn, `CCC(=C(c1ccc(O)cc1)c1ccc(O)cc1)c1ccc(OCCO)c(OC)c1` [Example 27, 4,4′-{2-[4-[(2-hydroxyethyl)oxy]-3-(methyloxy)phenyl]-1-butene-1,1-diyl}diphenol] gave a melting point of 158 to 159 °C.

The melting point is the temperature, or range, at which the solid turns liquid.
